Results as given in PubChem BioAssay AID248 (DTP/NCI, 2004).
Several values for one entry are separate records, joined by “and”; a condition that tells them apart may be missing. Equal values may be shown once. Toxic doses and inconclusive results are not listed.

Tested on: L1210 leukemia ip in BDF1 mice, survival T/C
Test: NCI In Vivo Anticancer Drug Screen. Data for tumor model L1210 Leukemia (intraperitoneal) in B6D2F1 (BDF1) mice
Settings: endpoint: mean survival time, higher = longer survival
Summary of the method: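 Tumor was transplanted into mice, which were then dosed with test compound or vehicle alone. Survival was recorded for each group, and the treated figure was expressed relative to the control figure.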

[1] = dose: 100.0 mg/kg/injection, schedule: Q01DX001 (ip), vehicle: saline
[2] = dose: 200.0 mg/kg/injection, schedule: Q01DX001 (ip), vehicle: saline
[3] = dose: 400.0 mg/kg/injection, schedule: Q01DX001 (ip), vehicle: saline
[4] = dose: 25.0 mg/kg/injection, schedule: Q04DX003 (ip), vehicle: saline
[5] = dose: 50.0 mg/kg/injection, schedule: Q04DX003 (ip), vehicle: saline

## CC(=O)Oc1cc(C(C)=O)c(O)c2ccccc12
dose: 100.0 mg/kg/injection, schedule: Q01DX001 (ip), vehicle: water
  T/C: 95 % of control
dose: 200.0 mg/kg/injection, schedule: Q01DX001 (ip), vehicle: water
  T/C: 93 % of control

## Cc1cc(/C=N/N=c2\[nH][nH]/c(=N\N=C\c3cc(C)n(-c4ccccc4)c3C)c3ccccc23)c(C)n1-c1ccccc1
dose: 50.0 mg/kg/injection, schedule: Q01DX001 (ip), vehicle: saline
  T/C: 97 % of control
[1]
  T/C: 97 % of control
[2]
  T/C: 92 % of control
[3]
  T/C: 103 % of control

## COc1ccc(-c2c(C)c(C)[nH]c(=O)c2C#N)c(OCc2ccccc2)c1OC
[1]
  T/C: 101 % of control
[2]
  T/C: 101 % of control
[3]
  T/C: 93 % of control

## CCOC(=O)C1=NN(c2ccccc2)C(=O)C1N=Nc1ccc(S(=O)(=O)Nc2nccc(C)n2)cc1 (centres undefined)
[1]
  T/C: 95 % of control
[2]
  T/C: 101 % of control
[3]
  T/C: 102 % of control

## Cc1ccc(C)c(CNC(=O)C2CCCCC2C(=O)O)c1 (centres undefined)
dose: 100.0 mg/kg/injection, schedule: Q01DX009 (ip), vehicle: saline with Tween-80
  T/C: 101 % of control
dose: 200.0 mg/kg/injection, schedule: Q01DX009 (ip), vehicle: saline with Tween-80
  T/C: 112 % of control
dose: 400.0 mg/kg/injection, schedule: Q01DX009 (ip), vehicle: saline with Tween-80
  T/C: 109 % of control

## CN(CCSSCCN(C)C(N)=S)C(N)=S
dose: 75.0 mg/kg/injection, schedule: Q04DX003 (ip), vehicle: saline
  T/C: 96 % of control
dose: 150.0 mg/kg/injection, schedule: Q04DX003 (ip), vehicle: saline
  T/C: 87 % of control
dose: 300.0 mg/kg/injection, schedule: Q04DX003 (ip), vehicle: saline
  T/C: 96 % of control

## O=C(C[n+]1cccc(CO)c1)c1ccccc1
dose: 12.5 mg/kg/injection, schedule: Q04DX003 (ip), vehicle: saline
  T/C: 102 % of control
[4]
  T/C: 103 % of control
[5]
  T/C: 100 % of control

## CCN1C(=O)CC2(CCN(C)CC2)C1=O
dose: 0.78 mg/kg/injection, schedule: Q01DX009 (ip), vehicle: saline
  T/C: 98 % of control
dose: 1.56 mg/kg/injection, schedule: Q01DX009 (ip), vehicle: saline
  T/C: 102 % of control
dose: 3.12 mg/kg/injection, schedule: Q01DX009 (ip), vehicle: saline
  T/C: 95 % of control
dose: 6.25 mg/kg/injection, schedule: Q01DX009 (ip), vehicle: saline
  T/C: 117 % of control
dose: 12.5 mg/kg/injection, schedule: Q01DX009 (ip), vehicle: saline
  T/C: 117 % of control
dose: 25.0 mg/kg/injection, schedule: Q01DX009 (ip), vehicle: saline
  T/C: 98 % of control
[4]
  T/C: 113 % of control
dose: 50.0 mg/kg/injection, schedule: Q01DX009 (ip), vehicle: saline
  T/C: 104 % of control and 113 % of control
[5]
  T/C: 115 % of control
dose: 100.0 mg/kg/injection, schedule: Q01DX009 (ip), vehicle: saline
  T/C: 93 % of control and 100 % of control
dose: 100.0 mg/kg/injection, schedule: Q04DX003 (ip), vehicle: saline
  T/C: 105 % of control
dose: 200.0 mg/kg/injection, schedule: Q04DX003 (ip), vehicle: saline
  T/C: 112 % of control
dose: 400.0 mg/kg/injection, schedule: Q01DX009 (ip), vehicle: saline
  T/C: 93 % of control
dose: 400.0 mg/kg/injection, schedule: Q04DX003 (ip), vehicle: saline
  T/C: 109 % of control

## CS(=O)(=O)OCCN(CCOS(C)(=O)=O)c1cccc(N)c1
dose: 0.22 mg/kg/injection, schedule: Q01DX001 (ip), vehicle: saline
  T/C: 105 % of control
dose: 0.33 mg/kg/injection, schedule: Q01DX001 (ip), vehicle: saline
  T/C: 105 % of control
dose: 0.5 mg/kg/injection, schedule: Q01DX001 (ip), vehicle: saline
  T/C: 97 % of control and 110 % of control
dose: 0.75 mg/kg/injection, schedule: Q01DX001 (ip), vehicle: saline
  T/C: 106 % of control
dose: 1.0 mg/kg/injection, schedule: Q01DX001 (ip), vehicle: saline
  T/C: 109 % of control
dose: 2.0 mg/kg/injection, schedule: Q01DX001 (ip), vehicle: saline
  T/C: 117 % of control
dose: 3.5 mg/kg/injection, schedule: Q01DX001 (ip), vehicle: saline
  T/C: 116 % of control
dose: 5.3 mg/kg/injection, schedule: Q01DX001 (ip), vehicle: saline
  T/C: 91 % of control
dose: 8.0 mg/kg/injection, schedule: Q01DX001 (ip), vehicle: saline
  T/C: 209 % of control and 86 % of control
